From US6689813B2 (Biostatin Gyogyszerkutato-Fejleszto kft., priority 1998, dated 2004)
Where no end group is shown, it is not given here. [ ]: non-standard residue; d: D form.

Tested on: release of sensory neuropeptides from the trachea of rats
Assay: In vitro release of sensory neuropeptides (SP, CGRP, SOM) from the trachea of rats, RIA
Set-up: species or system rat
Description: After bleeding out, the tracheas of two rats each were removed, placed into an organ bath (1.8 ml) and Krebs solution saturated with oxygen (95% of oxygen and 5% of carbon dioxide) was bubbled through it at 37° C. for 60 minutes (with a rate of 1 ml/min). After stopping the flow, the bath solution was changed 3 times (pre-stimulated—stimulated—post-stimulated) for 8 minutes. The release of sensory neuropeptides from the tissue samples was induced by electric (40 V, 0.1 ms, 10 Hz, 120 s) and chemical (10^−7 M of capsaicin) stimulation, in the presence or absence of TT-232 (200 nM, 500 nM). The fractions were collected in ice-cold tubes; the wet weights of tracheas were measured. The concentrations of substance P (SP), calcitonin gene-related peptide (CGRP) and somatostatin (SOM) were determined by using a specific radioimmunoassay (RIA) developed in our laboratory and expressed as the amount of peptide released from one g of tissue. The limits of measurements were: 2 fmol/tube for SP; 1 fmol/tube for CGRP; and 2 fmol/tube for SOM [Németh, J.: Acta Physiol. Hung. 84, 313-315 (1996); Helyes, Zs.: Br. J. Pharmacol. 121, 613-615 (1997)].

[1] = capsaicin stimulation, 200 nM TT-232
[2] = capsaicin stimulation, 500 nM TT-232
[3] = electrical stimulation, 500 nm TT-232

Substance: D-Phe-Cys-Tyr-D-Trp-Lys-Cys-Thr-NH2 ([dF]CY[dW]KCT-NH2; cysteine pairing not given here) [TT-232]
- decrease of capsaicin-induced SOM release [1]: 48%
- decrease of capsaicin-induced SP release [1]: 44%
- inhibition of capsaicin-induced CGRP release [2]: 27%
- inhibition of capsaicin-induced SOM release [2]: 74%
- inhibition of capsaicin-induced SP release [2]: 79%
- inhibition of CGRP release [3]: 48%
- inhibition of SOM release [3]: 42%
- inhibition of SP release [3]: 36%
- amount of SOM released (electrical stimulation, 500 nm TT-232, without TT-232 0.51 fmol/mg): 0.39 fmol/mg
- amount of CGRP released (electrical stimulation, 500 nm TT-232, without TT-232 0.69 fmol/mg): 0.36 fmol/mg
- amount of SP released (electrical stimulation, 500 nm TT-232, without TT-232 6 fmol/mg): 3.8 fmol/mg
- basal, non-stimulated release of the neuropeptides (in words) (no stimulation): not affected
